# According to patent US11180452B2, “Methods and compositions for selectively inhibiting pathogenic microbes” (priority 2019, dated 2021):
# Values joined by “and” are separate entries in the source; they are usually repeats but may differ in a detail not shown here. Identical values can stand only once. Like-named read-outs stand apart in the source and are kept apart here.
# Columns and labels:
# [1] = tested on: Bacillus subtilis; experiment: Bacillus subtilis MIC / MBC; format: cell-based; conditions: for MBC: Bacillus subtilis NRRL: B-571, minimum bactericidal concentration; for MIC: Bacillus subtilis (Ehrenberg 1835) Cohn 1872 NRRL: B-571, read-out: MIC
# [2] = tested on: Bacillus thuringiensis; format: cell-based; conditions: Bacillus thuringiensis Berliner ATCC: 10792; for MIC: Bacillus thuringiensis, read-out: MIC
# [3] = tested on: Burkholderia thailandensis Brett et al ATCC: 700388; experiment: microbe, parasite or virus in culture; format: cell-based
# [4] = tested on: Candida glabrata; experiment: Candida glabrata MIC / MFC; format: cell-based; conditions: Nakaseomyces glabratus, Candida glabrata #584 (Table 2); for MFC: minimum fungicidal concentration, read-out: MFC; for MIC: read-out: MIC
# [5] = tested on: Francisella tularensis subsp. Holarctica Strain LVSR NR-597; experiment: microbe, parasite or virus in culture; format: cell-based
# [6] = tested on: Francisella tularensis strains; experiment: microbe, parasite or virus in culture; format: cell-based
# [7] = Toxicity in mice, body weight over 7 days; format: in vivo, Balb/c mice; conditions: for Animal body weight (kg) Day 0 / Animal body weight (kg) Day 1 / Animal body weight (kg) Day 2 / Animal body weight (kg) Day 3 / Animal body weight (kg) Day 4 / Animal body weight (kg) Day 5 / Animal body weight (kg) Day 6 / Animal body weight (kg) Day 7: mice, IP; for Animal body weight (kg) Day 0: Day 0, individual animals; for Animal body weight (kg) Day 1: Day 1, individual animals; for Animal body weight (kg) Day 2: Day 2, individual animals; for Animal body weight (kg) Day 3: Day 3, individual animals; for Animal body weight (kg) Day 4: Day 4, individual animals; for Animal body weight (kg) Day 5: Day 5, individual animals; for Animal body weight (kg) Day 6: Day 6, individual animals; for Animal body weight (kg) Day 7: Day 7, individual animals
# Text: The vehicle is 40% PEG300 solution in 0.9% NaCl. […] Thus, the compounds are useful for in vivo antimicrobial administration.
# [8] = read-out: F. tularensis BSL-3 MIC, Strain 100
# [9] = read-out: F. tularensis BSL-3 MIC, strain HN-63
# [10] = read-out: F. tularensis BSL-3 MIC, strain LVS
# [11] = read-out: F. tularensis BSL-3 MIC, strain MA00-2987
# [12] = read-out: F. tularensis BSL-3 MIC, strain MO #1
# [13] = read-out: F. tularensis BSL-3 MIC, strain MO #2
# [14] = read-out: F. tularensis BSL-3 MIC, strain MO #3
# [15] = read-out: F. tularensis BSL-3 MIC, strain OR-96
# [16] = read-out: F. tularensis BSL-3 MIC, strain SCHU S4
# [17] = read-out: F. tularensis BSL-3 MIC, strain WY-96
# [18] = read-out: MAX, highest MIC over the Francisella tularensis strains
# [19] = read-out: MIN, lowest MIC over the Francisella tularensis strains
smiles,measurement,setting,value
"Clc1cc(Cl)c(Sc2c[nH]c3ccc(Br)cc23)c(Cl)c1 [Compound 174AG, 5-bromo-3-((2,4,6-trichlorophenyl)thio)-1H-indole]",MBC,[1],> 50 µg/mL
same,MIC,[1]; Bacillus subtilis,4 µg/mL
same,MBC,[2],> 50 µg/mL
same,MIC,[2],4 µg/mL
same,MIC,[3],> 50 µg/mL
same,MFC,[4],> 50 µg/mL
same,MIC,[4],6.25 µg/mL
"Fc1ccccc1Sc1c[nH]c2ccc(Br)cc12 [Compound 174AU, 5-bromo-3-((2-fluorophenyl)thio)-1H-indole]",MBC,[1],2 µg/mL
same,MIC,[1]; Bacillus subtilis,1 µg/mL
same,MBC,[2],2 µg/mL
same,MIC,[2],1 µg/mL
same,MFC,[4],50 µg/mL
same,MIC,[4],3.13 µg/mL
same,MIC,[5],0.25 µg/mL
same,MIC50,[6],2 µg/mL
same,MIC,[6]; [8],8 µg/mL
same,MIC,[6]; [9],2 µg/mL
same,MIC,[6]; [10],2 µg/mL
same,MIC,[6]; [11],2 µg/mL
same,MIC,[6]; [12],1.83 µg/mL
same,MIC,[6]; [13],1.67 µg/mL
same,MIC,[6]; [14],2 µg/mL
same,MIC,[6]; [15],4 µg/mL
same,MIC,[6]; [16],4 µg/mL
same,MIC,[6]; [17],1.5 µg/mL
same,MIC,[6]; [18],8 µg/mL
same,MIC,[6]; [19],1.5 µg/mL
same,toxicity in mice by body weight,"[7]; 6-week-old Balb/c mice, body weight over 7 days, vehicle 40% PEG300 in 0.9% NaCl",did not have significant toxicity
same,Animal body weight (kg) Day 0,"[7]; 0.1 mg/kg, 0.1 mg/kg",0.026 kg and 0.023 kg and 0.024 kg
same,Animal body weight (kg) Day 1,"[7]; 0.1 mg/kg, 0.1 mg/kg",0.024 kg and 0.022 kg and 0.023 kg
same,Animal body weight (kg) Day 2,"[7]; 0.1 mg/kg, 0.1 mg/kg",0.025 kg and 0.022 kg and 0.023 kg
same,Animal body weight (kg) Day 3,"[7]; 0.1 mg/kg, 0.1 mg/kg",0.025 kg and 0.022 kg and 0.023 kg
same,Animal body weight (kg) Day 4,"[7]; 0.1 mg/kg, 0.1 mg/kg",0.025 kg and 0.022 kg and 0.023 kg
same,Animal body weight (kg) Day 5,"[7]; 0.1 mg/kg, 0.1 mg/kg",0.025 kg and 0.023 kg and 0.024 kg
same,Animal body weight (kg) Day 6,"[7]; 0.1 mg/kg, 0.1 mg/kg",0.025 kg and 0.022 kg and 0.023 kg
same,Animal body weight (kg) Day 7,"[7]; 0.1 mg/kg, 0.1 mg/kg",0.024 kg and 0.022 kg and 0.023 kg
same,Animal body weight (kg) Day 0,"[7]; 1 mg/kg, 1 mg/kg",0.026 kg and 0.022 kg and 0.025 kg
same,Animal body weight (kg) Day 1,"[7]; 1 mg/kg, 1 mg/kg",0.025 kg (2×) and 0.022 kg
same,Animal body weight (kg) Day 2,"[7]; 1 mg/kg, 1 mg/kg",0.026 kg and 0.022 kg and 0.025 kg
same,Animal body weight (kg) Day 3,"[7]; 1 mg/kg, 1 mg/kg",0.026 kg and 0.022 kg and 0.025 kg
same,Animal body weight (kg) Day 4,"[7]; 1 mg/kg, 1 mg/kg",0.026 kg and 0.023 kg and 0.025 kg
same,Animal body weight (kg) Day 5,"[7]; 1 mg/kg, 1 mg/kg",0.026 kg and 0.023 kg and 0.025 kg
same,Animal body weight (kg) Day 6,"[7]; 1 mg/kg, 1 mg/kg",0.025 kg (2×) and 0.023 kg
same,Animal body weight (kg) Day 7,"[7]; 1 mg/kg, 1 mg/kg",0.026 kg and 0.024 kg and 0.025 kg
same,Animal body weight (kg) Day 0,"[7]; 10 mg/kg, 10 mg/kg",0.024 kg (2×) and 0.025 kg
same,Animal body weight (kg) Day 1,"[7]; 10 mg/kg, 10 mg/kg",0.023 kg (2×) and 0.024 kg
same,Animal body weight (kg) Day 2,"[7]; 10 mg/kg, 10 mg/kg",0.023 kg (2×) and 0.025 kg
same,Animal body weight (kg) Day 3,"[7]; 10 mg/kg, 10 mg/kg",0.024 kg and 0.023 kg and 0.025 kg
same,Animal body weight (kg) Day 4,"[7]; 10 mg/kg, 10 mg/kg",0.023 kg (2×) and 0.025 kg
same,Animal body weight (kg) Day 5,"[7]; 10 mg/kg, 10 mg/kg",0.023 kg (2×) and 0.026 kg
same,Animal body weight (kg) Day 6,"[7]; 10 mg/kg, 10 mg/kg",0.022 kg and 0.023 kg and 0.026 kg
same,Animal body weight (kg) Day 7,"[7]; 10 mg/kg, 10 mg/kg",0.022 kg and 0.023 kg and 0.026 kg
"COc1ccc2[nH]cc(Sc3ccccc3Br)c2c1 [Compound 174AS, 3-((2-bromophenyl)thio)-5-methoxy-1H-indole]",MIC,[1]; Bacillus subtilis,2 µg/mL
same,MIC,[4],> 50 µg/mL
same,MIC,[5],1 µg/mL
"Oc1ccc2[nH]cc(Sc3ccccc3O)c2c1 [Compound 174AP, 3-((2-hydroxyphenyl)thio)-1H-indol-5-ol]",MIC,[1]; Bacillus subtilis,50 µg/mL
same,MIC,[4],> 50 µg/mL
same,MIC,[5],50 µg/mL
"Oc1ccc2[nH]cc(Sc3ccccc3Br)c2c1 [Compound 174AR, 3-((2-bromophenyl)thio)-1H-indol-5-ol]",MIC,[1]; Bacillus subtilis,8 µg/mL
same,MIC,[4],50 µg/mL
same,MIC,[5],4 µg/mL
"Brc1ccc(Sc2c[nH]c3cc(Br)ccc23)cc1 [Compound 174A, 6-bromo-3-((4-bromophenyl)thio)-1H-indole]",MBC,[1],6.25 µg/mL
same,MIC,[1]; Bacillus subtilis,3.13 µg/mL
same,MBC,[2],3.13 µg/mL
same,MIC,[2],3.13 µg/mL
same,MIC,[3],> 50 µg/mL
same,MIC,[4],12.5 µg/mL
same,MIC,[5],1.56 µg/mL
"Cc1ccccc1Sc1c[nH]c2ccc(Br)cc12 [Compound 174AY, 5-bromo-3-(o-tolylthio)-1H-indole]",MBC,[1],2 µg/mL
same,MIC,[1]; Bacillus subtilis,1 µg/mL
same,MBC,[2],4 µg/mL
same,MIC,[2],2 µg/mL
same,MIC,[5],1 µg/mL
same,MIC50,[6],3.83 µg/mL
same,MIC,[6]; [8],4 µg/mL
same,MIC,[6]; [9],2 µg/mL
same,MIC,[6]; [10],4 µg/mL
same,MIC,[6]; [11],3.67 µg/mL
same,MIC,[6]; [12],2 µg/mL
same,MIC,[6]; [13],3.33 µg/mL
same,MIC,[6]; [14],3.67 µg/mL
same,MIC,[6]; [15],4 µg/mL
same,MIC,[6]; [16],4 µg/mL
same,MIC,[6]; [17],4 µg/mL
same,MIC,[6]; [18],4 µg/mL
same,MIC,[6]; [19],2 µg/mL
"Clc1c(Cl)c(Cl)c(Sc2c[nH]c3ccc(Br)cc23)c(Cl)c1Cl [Compound 174AD, 5-bromo-3-((perchlorophenyl)thio)-1H-indole]",MIC,[1],16 µg/mL
same,MBC,[1],50 µg/mL
same,MBC,[2],> 50 µg/mL
same,MIC,[2],32 µg/mL
same,MIC,[3],> 50 µg/mL
"COc1ccc2[nH]cc(Sc3ccccc3O)c2c1 [Compound 174AQ, 2-((5-methoxy-1H-indol-3-yl)thio)phenol]",MIC,[1]; Bacillus subtilis,32 µg/mL
same,MIC,[4],50 µg/mL
same,MIC,[5],16 µg/mL
"Brc1ccc2[nH]cc(Sc3cc(Br)c(Br)c(Br)c3)c2c1 [Compound 174AH, 5-bromo-3-((3,4,5-tribromophenyl)thio)-1H-indole]",MBC,[1],> 50 µg/mL
same,MIC,[1]; Bacillus subtilis,8 µg/mL
same,MBC,[2],> 50 µg/mL
same,MIC,[2],8 µg/mL
same,MIC,[3],> 50 µg/mL
same,MIC,[4],> 50 µg/mL
"Cc1[nH]c2ccccc2c1Sc1ccc(Br)cc1 [Compound 172C, 3-((4-bromophenyl)thio)-2-methyl-1H-indole]",MIC,[3],> 50 µg/mL
"Cc1[nH]c2ccc(O)cc2c1Sc1ccccc1O [Compound 174AO, 3-((2-hydroxyphenyl)thio)-2-methyl-1H-indol-5-ol]",MIC,[1]; Bacillus subtilis,50 µg/mL
same,MIC,[4],> 50 µg/mL
same,MIC,[5],50 µg/mL
"Clc1ccccc1Sc1c[nH]c2ccc(Br)cc12 [Compound 174AJ, 5-bromo-3-((2-chlorophenyl)thio)-1H-indole]",MBC,[1],3.13 µg/mL
same,MIC,[1]; Bacillus subtilis,0.78 µg/mL
same,MBC,[2],1.56 µg/mL
same,MIC,[2],0.78 µg/mL
same,MIC,[3],> 50 µg/mL
same,MFC,[4],25 µg/mL
same,MIC,[4],6.25 µg/mL
"OCc1ccccc1Sc1c[nH]c2ccc(Br)cc12 [Compound 174AT, (2-((5-bromo-1H-indol-3-yl)thio)phenyl)methanol]",MBC,[1],16 µg/mL
same,MIC,[1]; Bacillus subtilis,8 µg/mL
same,MBC,[2],16 µg/mL
same,MIC,[2],8 µg/mL
same,MIC,[4],50 µg/mL
same,MIC,[5],8 µg/mL
"Brc1ccc(Sc2c[nH]c3c(Br)cc(Br)cc23)cc1 [Compound 174AC, 5,7-dibromo-3-((4-bromophenyl)thio)-1H-indole]",MBC,[1],16 µg/mL
same,MIC,[1]; Bacillus subtilis,8 µg/mL
same,MBC,[2],50 µg/mL
same,MIC,[2],8 µg/mL
same,MIC,[3],> 50 µg/mL
same,MIC,[4],25 µg/mL
"Brc1ccc(Sc2cnc3ccccn23)cc1 [Compound 174AN, 3-((4-bromophenyl)thio)imidazo[1,2-a]pyridine]",MIC,[1]; Bacillus subtilis,16 µg/mL
same,MIC,[4],50 µg/mL
"Cc1[nH]c2ccc(O)cc2c1Sc1ccccc1N [Compound 174AK, 3-((2-aminophenyl)thio)-2-methyl-1H-indol-5-ol]",MBC,[1],> 50 µg/mL
same,MIC,[1]; Bacillus subtilis,50 µg/mL
same,MIC,[2],> 50 µg/mL
same,MIC,[3],> 50 µg/mL
same,MIC,[4],> 50 µg/mL
"Brc1ccc2[nH]cc(Sc3ccccc3)c2c1 [Compound 174AA, 5-bromo-3-(phenylthio)-1H-indole]",MBC,[1],16 µg/mL
same,MIC,[1]; Bacillus subtilis,4 µg/mL
same,MBC,[2],16 µg/mL
same,MIC,[2],8 µg/mL
same,MIC,[3],> 50 µg/mL
same,MFC,[4],6.25 µg/mL
same,MIC,[4],3.13 µg/mL
same,MIC,[5],4 µg/mL
"Clc1cc2[nH]cc(Sc3ccc(Br)cc3)c2cc1Br [Compound 174AF, 5-bromo-3-((4-bromophenyl)thio)-6-chloro-1H-indole]",MBC,[1],50 µg/mL
same,MIC,[1]; Bacillus subtilis,4 µg/mL
same,MBC,[2],4 µg/mL
same,MIC,[2],2 µg/mL
same,MIC,[3],> 50 µg/mL
same,MIC,[4],> 50 µg/mL
same,MIC,[5],4 µg/mL
